For assay [1], the target named is Xanthine dehydrogenase/oxidase (Homo sapiens, UniProt P47989). Kind of assay: Inhibition of xanthine oxidase.
Assay [2] in a line: Cytotoxicity against human SW1116 cells. Format: functional, cell-based. To be noted: SW 1116.

Xanthine dehydrogenase/oxidase, sequence (P47989 whole entry): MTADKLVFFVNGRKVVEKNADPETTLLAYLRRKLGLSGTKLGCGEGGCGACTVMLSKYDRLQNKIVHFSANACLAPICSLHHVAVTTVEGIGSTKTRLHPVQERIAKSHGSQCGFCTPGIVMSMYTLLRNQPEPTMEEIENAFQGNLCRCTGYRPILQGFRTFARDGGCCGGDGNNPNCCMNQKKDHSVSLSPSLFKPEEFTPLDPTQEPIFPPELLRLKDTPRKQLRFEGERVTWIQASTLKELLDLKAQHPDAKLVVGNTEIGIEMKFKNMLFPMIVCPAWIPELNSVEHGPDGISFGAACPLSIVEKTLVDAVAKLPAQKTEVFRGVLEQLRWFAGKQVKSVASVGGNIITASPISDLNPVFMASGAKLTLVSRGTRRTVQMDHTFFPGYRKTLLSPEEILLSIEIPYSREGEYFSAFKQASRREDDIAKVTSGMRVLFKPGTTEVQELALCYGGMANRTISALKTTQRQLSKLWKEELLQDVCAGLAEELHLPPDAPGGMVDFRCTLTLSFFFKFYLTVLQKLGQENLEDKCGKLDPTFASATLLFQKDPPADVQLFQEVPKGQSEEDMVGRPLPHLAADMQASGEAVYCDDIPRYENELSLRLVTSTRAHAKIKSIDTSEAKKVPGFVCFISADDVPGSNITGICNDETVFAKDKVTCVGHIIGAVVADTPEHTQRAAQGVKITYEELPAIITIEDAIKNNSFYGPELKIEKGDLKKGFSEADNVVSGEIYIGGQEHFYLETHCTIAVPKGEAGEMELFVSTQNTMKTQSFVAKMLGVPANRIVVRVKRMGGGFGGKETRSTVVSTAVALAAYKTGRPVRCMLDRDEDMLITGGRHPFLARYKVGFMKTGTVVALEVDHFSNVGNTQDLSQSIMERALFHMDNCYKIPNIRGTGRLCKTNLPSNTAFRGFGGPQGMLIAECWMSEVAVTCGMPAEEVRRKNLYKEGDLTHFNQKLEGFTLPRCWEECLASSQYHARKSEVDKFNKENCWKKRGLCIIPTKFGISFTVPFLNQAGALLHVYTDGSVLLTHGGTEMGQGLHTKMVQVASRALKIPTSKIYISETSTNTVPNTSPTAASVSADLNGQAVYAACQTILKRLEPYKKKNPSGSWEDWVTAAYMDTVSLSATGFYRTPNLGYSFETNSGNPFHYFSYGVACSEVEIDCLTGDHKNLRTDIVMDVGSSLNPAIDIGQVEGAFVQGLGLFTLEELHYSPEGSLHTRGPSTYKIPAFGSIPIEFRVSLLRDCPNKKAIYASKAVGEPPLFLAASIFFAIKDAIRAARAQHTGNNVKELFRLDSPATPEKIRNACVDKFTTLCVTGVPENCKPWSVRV

Regarding `COc1cc(OC)c2c(O)c3c(=O)cc(C)oc3c(-c3c(OC)cc4cc(O)c5c(=O)cc(C)oc5c4c3OC)c2c1` [FONSECINONE A], the IC50 in assay [1] was 19.5 µM. `COc1cc(OC)c2c(O)c3c(=O)cc(C)oc3cc2c1` [RUBROFUSARIN B]: the IC50 in assay [1] is 16.8 µM; in assay [2], 15.7 µM.

The record behind these values is ChEMBL document CHEMBL1141757, “Structural revision of aspernigrin A, reisolated from Cladosporium herbarum IFB-E002” (J Nat Prod, 2005).
